Results on nine molecules are retold here after patent US20250353864A1, “INDAZOLE CONTAINING MACROCYCLES AND THEIR USE” (BLOSSOMHILL THERAPEUTICS, INC., priority 2022, published 2025).

Type in all cases: biochemical
One assay has as its target ALK (Homo sapiens (Human), UniProt Q9UM73). Briefly: HotSpot radiometric kinase assay, inhibition of ALK kinase activity. Particulars: 10 μM ATP. As to the method:
Briefly, specific kinase/substrate pairs along with required cofactors were prepared in reaction buffer; 20 mM Hepes pH 7.5, 10 mM […], 1 mM EGTA, 0.02% Brij35, 0.02 mg/ml BSA, 0.1 mM Na3VO4, 2 mM DTT, 1% DMSO. Compounds were delivered into the reaction, followed […] later by addition of a mixture of ATP (Sigma, St. Louis MO) and ^33P ATP (Perkin Elmer, Waltham MA) to a final concentration of 10 μM. Reactions were carried out at room temperature for 120 min, followed by spotting of the reactions onto P81 ion exchange filter paper (Whatman Inc., Piscataway, NJ). Unbound phosphate was removed by extensive washing of filters in 0.75% phosphoric acid. […] IC50 values and curve fits were obtained using Prism (GraphPad Software).

Another assay has as its target CLK1 (Homo sapiens (Human), UniProt P49759). Briefly: Inhibition of CLK1 kinase activity evaluated at Nanosyn (ADP-Glo). The settings on record: ADP-Glo luminescence. Summed up:
(§1)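 Enzyme + substrate in HEPES pH 7.5/MgCl2/DTT buffer; compound dispensed acoustically, 1% DMSO. ATP start, assay-specific incubation time. ADP-Glo reagent 40 min, detection reagent 10 min, luminescence. %inh vs DMSO (0%) and no-enzyme (100%) controls.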
(In general: In ADP-Glo the light output rises with the ADP produced.)

The target of a further assay is CLK3 (Homo sapiens (Human), UniProt P49761). As to the kind of experiment: Inhibition of CLK3 kinase activity evaluated at Nanosyn (ADP-Glo). Particulars: ADP-Glo luminescence. The gist of the method:
as §1

The target of assay [1] is EGFR L858R/T790M/C797S mutant (Homo sapiens (Human), UniProt P00533, C797S/L858R/T790M). As to the kind of experiment: HotSpot radiometric kinase assay, EGFR L858R/T790M/C797S mutant. The settings on record: 10 μM ATP. Summed up: (§2)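 Radiometric filter-binding assay with EGFR mutant kinase/substrate pairs in 20 mM Hepes pH 7.5 with Mg, EGTA, Brij35, BSA, Na3VO4, DTT, 1% DMSO. Compound preincubated ~20 min, then ATP/^33P-ATP added at 10 μM final. Reaction 120 min at room temperature, spotted on P81 paper; IC50 from curve fits.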
Chain of EGFR L858R/T790M/C797S mutant (P00533 25-1210 T790M/C797S/L858R): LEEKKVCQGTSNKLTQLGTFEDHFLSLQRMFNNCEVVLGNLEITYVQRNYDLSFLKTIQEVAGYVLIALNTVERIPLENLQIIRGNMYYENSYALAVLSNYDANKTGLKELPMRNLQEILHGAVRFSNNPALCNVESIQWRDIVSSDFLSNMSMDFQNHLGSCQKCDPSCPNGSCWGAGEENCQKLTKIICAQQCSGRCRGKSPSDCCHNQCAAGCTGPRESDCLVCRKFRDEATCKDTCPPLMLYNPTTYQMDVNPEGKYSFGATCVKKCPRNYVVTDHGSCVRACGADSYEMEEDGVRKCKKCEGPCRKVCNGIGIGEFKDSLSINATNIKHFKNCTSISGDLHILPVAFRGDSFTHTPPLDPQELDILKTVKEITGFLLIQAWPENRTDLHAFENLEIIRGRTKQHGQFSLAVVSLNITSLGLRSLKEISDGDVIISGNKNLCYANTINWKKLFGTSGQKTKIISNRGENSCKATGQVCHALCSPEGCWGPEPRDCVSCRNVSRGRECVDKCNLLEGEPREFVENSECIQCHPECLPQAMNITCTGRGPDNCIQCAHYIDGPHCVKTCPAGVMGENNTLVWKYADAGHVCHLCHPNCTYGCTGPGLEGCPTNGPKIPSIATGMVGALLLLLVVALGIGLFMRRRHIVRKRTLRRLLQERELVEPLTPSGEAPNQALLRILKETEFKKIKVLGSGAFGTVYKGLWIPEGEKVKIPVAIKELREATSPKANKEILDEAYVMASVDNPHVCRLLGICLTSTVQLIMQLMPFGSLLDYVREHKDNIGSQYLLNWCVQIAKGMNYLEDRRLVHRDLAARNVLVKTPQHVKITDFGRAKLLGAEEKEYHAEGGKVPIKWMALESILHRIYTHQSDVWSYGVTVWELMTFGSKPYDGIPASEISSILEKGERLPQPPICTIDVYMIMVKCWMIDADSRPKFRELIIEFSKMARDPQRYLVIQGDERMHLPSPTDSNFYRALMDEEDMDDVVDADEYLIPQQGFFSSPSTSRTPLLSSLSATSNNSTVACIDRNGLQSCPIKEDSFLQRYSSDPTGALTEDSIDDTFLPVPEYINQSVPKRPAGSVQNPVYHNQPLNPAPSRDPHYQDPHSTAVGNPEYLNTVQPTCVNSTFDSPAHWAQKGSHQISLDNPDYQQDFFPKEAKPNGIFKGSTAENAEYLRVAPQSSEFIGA

The target of assay [2] is EGFR Δ746-750/C797S mutant (Homo sapiens (Human), UniProt P00533, C797S/DEL746-750). As to the kind of experiment: HotSpot radiometric kinase assay, EGFR Δ746-750/C797S mutant. Particulars: 10 μM ATP. Summed up: as §2
For another assay, the target named is CLK2 (Homo sapiens (Human), UniProt P49760). Briefly: Inhibition of CLK2 kinase activity evaluated at Nanosyn (ADP-Glo). The settings on record: ADP-Glo luminescence. Summed up:
as §1

Another assay deals with EGFR (D770_N771insNPG) (Homo sapiens (Human), UniProt P00533, INS770NPG). Briefly: HotSpot radiometric kinase assay, EGFR (D770_N771insNPG). The settings on record: 10 μM ATP, read-out: EGFR (Δ770_N771insNPG) IC50. Summed up:
as §2

The target of another assay is EGFR Δ746-750 mutant (Homo sapiens (Human), UniProt P00533, DEL746-750). Briefly: HotSpot radiometric kinase assay, EGFR Δ746-750 mutant. The settings on record: 10 μM ATP. The gist of the method: as §2
In the next assay the target is CLK4 (Homo sapiens (Human), UniProt Q9HAZ1). As to the kind of experiment: Inhibition of CLK4 kinase activity evaluated at Nanosyn (ADP-Glo). The settings on record: ADP-Glo luminescence. Summed up:
as §1

The target of the next assay is EGFR L858R mutant (Homo sapiens (Human), UniProt P00533, L858R). Briefly: HotSpot radiometric kinase assay, EGFR L858R mutant. Particulars: 10 μM ATP. The gist of the method: as §2
In another assay the target is EGFR L858R/T790M mutant (Homo sapiens (Human), UniProt P00533, L858R/T790M). As to the kind of experiment: HotSpot radiometric kinase assay, EGFR L858R/T790M mutant. The settings on record: 10 μM ATP. The gist of the method: as §2
Chain of EGFR L858R/T790M mutant (P00533 25-1210 T790M/L858R): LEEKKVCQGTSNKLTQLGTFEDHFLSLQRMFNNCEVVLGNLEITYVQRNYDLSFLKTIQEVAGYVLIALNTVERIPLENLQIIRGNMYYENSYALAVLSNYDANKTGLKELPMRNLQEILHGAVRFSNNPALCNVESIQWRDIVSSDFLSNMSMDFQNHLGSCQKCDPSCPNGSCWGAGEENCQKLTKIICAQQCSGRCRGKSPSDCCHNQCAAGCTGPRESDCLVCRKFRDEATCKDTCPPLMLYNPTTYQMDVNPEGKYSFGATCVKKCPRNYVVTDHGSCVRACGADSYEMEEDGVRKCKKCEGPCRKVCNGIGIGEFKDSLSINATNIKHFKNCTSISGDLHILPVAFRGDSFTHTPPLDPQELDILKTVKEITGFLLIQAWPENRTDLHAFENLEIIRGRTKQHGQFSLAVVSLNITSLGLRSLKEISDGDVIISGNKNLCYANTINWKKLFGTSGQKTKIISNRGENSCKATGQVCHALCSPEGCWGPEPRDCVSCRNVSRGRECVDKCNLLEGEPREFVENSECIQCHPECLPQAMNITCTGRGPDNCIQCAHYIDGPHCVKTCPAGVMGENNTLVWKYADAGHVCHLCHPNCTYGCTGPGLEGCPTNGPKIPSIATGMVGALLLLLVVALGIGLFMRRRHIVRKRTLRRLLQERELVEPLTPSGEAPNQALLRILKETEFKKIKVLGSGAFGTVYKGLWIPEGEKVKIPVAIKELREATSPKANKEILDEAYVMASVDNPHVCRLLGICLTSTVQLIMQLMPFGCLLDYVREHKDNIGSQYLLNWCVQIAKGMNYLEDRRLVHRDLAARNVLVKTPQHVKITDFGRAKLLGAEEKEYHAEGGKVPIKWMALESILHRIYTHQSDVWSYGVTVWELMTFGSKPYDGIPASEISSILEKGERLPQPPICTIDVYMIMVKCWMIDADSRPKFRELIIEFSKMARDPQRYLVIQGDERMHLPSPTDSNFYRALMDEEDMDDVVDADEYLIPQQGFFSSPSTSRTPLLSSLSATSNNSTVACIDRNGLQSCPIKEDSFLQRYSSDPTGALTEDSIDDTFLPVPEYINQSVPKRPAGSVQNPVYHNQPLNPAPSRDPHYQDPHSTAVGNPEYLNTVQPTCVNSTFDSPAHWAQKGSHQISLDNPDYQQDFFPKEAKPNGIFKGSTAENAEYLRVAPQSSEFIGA
A further assay concerns the target EGFR WT (Homo sapiens (Human), UniProt P00533). As to the kind of experiment: HotSpot radiometric kinase assay (Reaction Biology), EGFR WT. The settings on record: 10 μM ATP. The gist of the method:
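Compounds were preincubated ~20 min with kinase/substrate in pH 7.5 Hepes buffer (MgCl2, EGTA, Brij35, BSA, Na3VO4, DTT, 1% DMSO), then ATP plus 33P-ATP was added to 10 μM final. After 120 min at room temperature, reactions were spotted on P81 filters and washed; IC50 values came from curve fits.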

Chain of CLK4 (Q9HAZ1 whole entry): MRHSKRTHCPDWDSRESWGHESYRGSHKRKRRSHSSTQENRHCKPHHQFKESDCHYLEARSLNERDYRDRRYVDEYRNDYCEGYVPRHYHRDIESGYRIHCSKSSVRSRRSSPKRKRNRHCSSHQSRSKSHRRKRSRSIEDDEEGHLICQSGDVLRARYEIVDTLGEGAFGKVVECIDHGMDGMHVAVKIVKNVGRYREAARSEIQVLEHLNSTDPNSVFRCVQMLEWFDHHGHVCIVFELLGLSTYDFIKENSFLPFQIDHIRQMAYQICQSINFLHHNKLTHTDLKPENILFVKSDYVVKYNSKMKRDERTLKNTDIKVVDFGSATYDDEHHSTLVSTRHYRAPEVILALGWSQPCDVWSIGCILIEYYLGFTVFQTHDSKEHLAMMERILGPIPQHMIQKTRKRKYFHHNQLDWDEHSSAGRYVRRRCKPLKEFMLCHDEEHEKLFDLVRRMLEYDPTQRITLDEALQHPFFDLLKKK
Chain of CLK1 (P49759 whole entry): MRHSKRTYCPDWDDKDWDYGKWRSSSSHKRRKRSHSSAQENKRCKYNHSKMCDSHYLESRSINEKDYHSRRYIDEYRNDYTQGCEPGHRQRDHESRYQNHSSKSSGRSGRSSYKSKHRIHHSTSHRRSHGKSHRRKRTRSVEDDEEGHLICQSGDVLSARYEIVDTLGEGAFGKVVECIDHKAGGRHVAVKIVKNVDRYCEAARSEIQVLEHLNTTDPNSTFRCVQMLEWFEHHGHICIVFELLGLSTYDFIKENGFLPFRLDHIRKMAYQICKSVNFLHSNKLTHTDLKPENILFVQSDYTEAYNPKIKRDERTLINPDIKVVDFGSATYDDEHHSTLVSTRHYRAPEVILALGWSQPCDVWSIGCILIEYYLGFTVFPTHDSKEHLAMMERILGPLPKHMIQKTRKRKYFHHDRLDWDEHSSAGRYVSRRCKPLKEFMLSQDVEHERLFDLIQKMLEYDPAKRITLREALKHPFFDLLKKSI
Chain of ALK (Q9UM73 19-1620): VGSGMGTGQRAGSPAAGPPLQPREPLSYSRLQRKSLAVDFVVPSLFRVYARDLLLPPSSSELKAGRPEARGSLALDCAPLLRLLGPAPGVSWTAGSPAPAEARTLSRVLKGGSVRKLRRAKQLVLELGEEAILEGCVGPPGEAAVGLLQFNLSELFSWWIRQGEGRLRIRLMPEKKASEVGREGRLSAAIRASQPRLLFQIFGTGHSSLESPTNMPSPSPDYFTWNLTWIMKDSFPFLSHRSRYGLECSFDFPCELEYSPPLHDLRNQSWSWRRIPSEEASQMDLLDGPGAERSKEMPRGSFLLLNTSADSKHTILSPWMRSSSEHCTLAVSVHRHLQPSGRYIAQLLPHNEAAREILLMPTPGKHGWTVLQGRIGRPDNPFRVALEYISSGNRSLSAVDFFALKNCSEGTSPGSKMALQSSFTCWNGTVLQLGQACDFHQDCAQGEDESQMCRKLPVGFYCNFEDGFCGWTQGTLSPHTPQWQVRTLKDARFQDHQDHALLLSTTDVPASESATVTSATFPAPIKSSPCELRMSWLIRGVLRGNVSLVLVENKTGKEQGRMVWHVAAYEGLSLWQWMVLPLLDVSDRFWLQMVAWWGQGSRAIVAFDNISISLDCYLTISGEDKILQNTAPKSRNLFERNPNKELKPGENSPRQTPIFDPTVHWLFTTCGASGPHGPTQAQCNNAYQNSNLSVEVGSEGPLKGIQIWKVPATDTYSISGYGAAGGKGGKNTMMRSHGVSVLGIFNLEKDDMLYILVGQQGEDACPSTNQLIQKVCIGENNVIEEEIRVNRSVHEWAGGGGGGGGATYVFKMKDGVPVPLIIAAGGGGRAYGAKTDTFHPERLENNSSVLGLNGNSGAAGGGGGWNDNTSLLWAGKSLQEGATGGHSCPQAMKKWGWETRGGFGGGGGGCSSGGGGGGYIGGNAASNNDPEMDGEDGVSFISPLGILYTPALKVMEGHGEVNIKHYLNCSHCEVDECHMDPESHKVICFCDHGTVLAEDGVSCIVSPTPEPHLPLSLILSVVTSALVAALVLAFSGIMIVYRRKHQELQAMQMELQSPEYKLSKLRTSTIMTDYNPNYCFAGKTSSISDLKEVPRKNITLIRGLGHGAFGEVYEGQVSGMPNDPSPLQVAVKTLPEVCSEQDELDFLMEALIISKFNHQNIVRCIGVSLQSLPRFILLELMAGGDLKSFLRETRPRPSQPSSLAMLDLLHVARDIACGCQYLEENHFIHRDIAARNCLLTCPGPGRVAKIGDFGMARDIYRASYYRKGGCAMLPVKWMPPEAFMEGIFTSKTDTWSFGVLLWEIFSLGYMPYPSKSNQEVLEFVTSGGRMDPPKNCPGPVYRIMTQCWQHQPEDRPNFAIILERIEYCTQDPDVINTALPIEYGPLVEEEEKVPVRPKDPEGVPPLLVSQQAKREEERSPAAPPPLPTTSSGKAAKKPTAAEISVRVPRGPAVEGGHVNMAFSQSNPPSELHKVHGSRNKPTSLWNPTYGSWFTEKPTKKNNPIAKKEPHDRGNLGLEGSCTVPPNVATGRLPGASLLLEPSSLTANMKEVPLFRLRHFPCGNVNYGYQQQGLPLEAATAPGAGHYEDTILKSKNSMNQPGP

For orientation: IC50 means the midpoint of a concentration-inhibition curve. As for `CCOc1nn(CCO)c2c1/C=C/c1n[nH]c3ccc(cc13)-c1cnn(C)c1O[C@@H](C)CN(C)C2` [Example 119, 2-[(10S,17E)-16-ethoxy-8,10,12-trimethyl-2,8,10,11,12,13-hexahydro-14H-3,5-ethenotripyrazolo[3,4-f:3′,4′-j:4″,3″-n][1,4]oxazacyclopentadecin-14-yl]ethan-1-ol], the half-maximal inhibitory concentration (IC50) on ALK is 1.05 nM; at CLK1, 0.14 nM; on CLK3 it was 19.4 nM; in assay [1] it was 2.12 nM; in [2], 1.25 nM; on CLK2 it was 0.04 nM. Further, the IC50 amounted to 8.5 nM on EGFR (D770_N771insNPG); 0.63 nM against EGFR Δ746-750 mutant; 0.33 nM on CLK4; 0.61 nM on EGFR L858R mutant; 0.26 nM against EGFR L858R/T790M mutant; 2.34 nM against EGFR WT.

`Cc1nn(C)c2c1/C=C/c1n[nH]c3ccc(cc13)-c1cnn(C)c1O[C@@H](C)CN(C)C2` [Example 120, (10S,17E)-8,10,12,14,16-pentamethyl-2,10,11,12,13,14-hexahydro-8H-3,5-ethenotripyrazolo[3,4-f:3′,4′-j:4″,3″- n][1,4]oxazacyclopentadecine]: the IC50 against ALK was 1.82 nM; on CLK1 it was 0.12 nM; at CLK3 it was 112 nM; in assay [1], 2.62 nM; in [2], 5.8 nM; on CLK2 it was 0.08 nM. In addition, the IC50 on EGFR (D770_N771insNPG) was found to be 99.8 nM; at EGFR Δ746-750 mutant it was 7.76 nM; at CLK4, 0.27 nM; at EGFR L858R mutant, 7.91 nM; on EGFR L858R/T790M mutant, 0.33 nM; at EGFR WT, 41.3 nM.

With `Cc1onc2c1/C=C/c1n[nH]c3ccc(cc13)-c1cnn(C)c1O[C@@H](C)CN(C)C2` [Example 134, (10S,17E)-8,10,12,16-tetramethyl-2,8,10,11,12,13-hexahydro-3,5-etheno[1,2]oxazolo[3,4-f]dipyrazolo[3,4-j:4′,3′-n][1,4]oxazacyclopentadecine], the IC50 was determined as 21.6 nM on ALK; 0.29 nM at CLK1; 230 nM at CLK3; 12.6 nM in assay [1]; 90.8 nM in assay [2]; 0.19 nM on CLK2. Also, the IC50 is over 1000 nM on EGFR (D770_N771insNPG); 173 nM on EGFR Δ746-750 mutant; 0.61 nM at CLK4; 182 nM against EGFR L858R mutant; 24 nM on EGFR L858R/T790M mutant; 1210 nM against EGFR WT.

Regarding `CC(C)Oc1nn(CCO)c2c1/C=C/c1n[nH]c3ccc(cc13)-c1cnn(C)c1O[C@@H](C)CN(C)C2` [Example 147, 2-{(10S,17E)-8,10,12-trimethyl-16-[(propan-2-yl)oxy]-2,8,10,11,12,13-hexahydro-14H-3,5-ethenotripyrazolo[3,4-f:3′,4′-j:4″,3″-n][1,4]oxazacyclopentadecin-14-yl}ethan-1-ol], the IC50 turned out to be 0.99 nM on ALK; 0.13 nM on CLK1; 5.21 nM at CLK3; 0.19 nM in [1]; 0.39 nM in assay [2]; 0.02 nM at CLK2. Further, the half-maximal inhibitory concentration (IC50) at EGFR (D770_N771insNPG) amounted to 9.08 nM; on EGFR Δ746-750 mutant it was 0.59 nM; on CLK4 it was 0.32 nM; against EGFR L858R mutant it was 0.44 nM; against EGFR L858R/T790M mutant, 0.11 nM; against EGFR WT, 3.16 nM.

As for `C[C@H]1CN(C)Cc2c(c(C#N)nn2C)/C=C/c2n[nH]c3ccc(cc23)-c2cnn(C)c2O1` [Example 159, (10S,17E)-8,10,12,14-tetramethyl-2,10,11,12,13,14-hexahydro-8H-3,5-ethenotripyrazolo[3,4-f:3′,4′-j:4″,3″-n][1,4]oxazacyclopentadecine-16-carbonitrile], the IC50 was 3.72 nM against ALK; 0.14 nM on CLK1; 1000 nM on CLK3; 0.74 nM in [1]; 14.1 nM in [2]; 0.07 nM on CLK2. Besides, the IC50 on EGFR (D770_N771insNPG) is 116 nM; at EGFR Δ746-750 mutant, 27 nM; at CLK4, 0.38 nM; on EGFR L858R mutant it was 34.7 nM; against EGFR L858R/T790M mutant, 1.54 nM; against EGFR WT, 160 nM.

Consider `C[C@H]1CN(C)Cc2c(c(OCC#N)nn2C)/C=C/c2n[nH]c3ccc(cc23)-c2cnn(C)c2O1` [Example 163, {[(10S,17E)-8,10,12,14-tetramethyl-2,10,11,12,13,14-hexahydro-8H-3,5-ethenotripyrazolo[3,4-f:3′,4′-j:4″,3″-n][1,4]oxazacyclopentadecin-16-yl]oxy}acetonitrile], for which the half-maximal inhibitory concentration (IC50) was found to be 1.13 nM against ALK; 0.28 nM on CLK1; 215 nM on CLK3; 0.86 nM in [1]; 4.72 nM in assay [2]; 0.06 nM at CLK2. Moreover, the IC50 on EGFR (D770_N771insNPG) amounted to 52 nM; against EGFR Δ746-750 mutant it was 7.33 nM; on CLK4, 0.63 nM; against EGFR L858R mutant it was 8.2 nM; against EGFR L858R/T790M mutant, 0.85 nM; on EGFR WT, 29.6 nM.

In the case of `CC(C)Oc1nn(CCO)c2c1/C=C/c1n[nH]c3cc(F)c(cc13)-c1cnn(C)c1O[C@@H](C)CN(C)C2` [Example 181, 2-{(10S,17E)-19-fluoro-8,10,12-trimethyl-16-[(propan-2-yl)oxy]-2,8,10,11,12,13-hexahydro-14H-3,5-ethenotripyrazolo[3,4-f:3′,4′-j:4″,3″- n][1,4]oxazacyclopentadecin-14-yl}ethan-1-ol], the IC50 was determined as 1.05 nM at ALK; 0.87 nM on CLK1; 56.2 nM on CLK3; 2.5 nM in assay [1]; 1.68 nM in assay [2]; 0.68 nM at CLK2. In addition, the IC50 on EGFR (D770_N771insNPG) is 84.4 nM; on EGFR Δ746-750 mutant it was 2.23 nM; on CLK4 it was 2.6 nM; on EGFR L858R mutant, 1.8 nM; at EGFR L858R/T790M mutant, 1.29 nM; against EGFR WT, 12.5 nM.

With `CC(C)Oc1nn([C@@H](C)CO)c2c1/C=C/c1n[nH]c3cc(F)c(cc13)-c1cnn(C)c1O[C@@H](C)CN(C)C2` [Example 200, (2S)-2-{(10S,17E)-19-fluoro-8,10,12-trimethyl-16-[(propan-2-yl)oxy]-2,8,10,11,12,13-hexahydro-14H-3,5-ethenotripyrazolo[3,4-f:3′,4′-j:4″,3″-n][1,4]oxazacyclopentadecin-14-yl}propan-1-ol], the IC50 against ALK is 1.49 nM; on CLK1 it was 0.48 nM; at CLK3, 194 nM; in assay [1], 0.69 nM; in [2] it was 1.93 nM; on CLK2 it was 1 nM. Also, the IC50 came to 59.9 nM at EGFR (D770_N771insNPG); 4.08 nM on EGFR Δ746-750 mutant; 1.53 nM on CLK4; 2.01 nM on EGFR L858R mutant; 1.41 nM against EGFR L858R/T790M mutant; 6.46 nM against EGFR WT.

Take `CCOc1nn([C@@H](C)CO)c2c1/C=C/c1n[nH]c3cc(F)c(cc13)-c1cnn(C)c1O[C@@H](C)CN(C)C2` [Example 214, (2S)-2-[(10S,17E)-16-ethoxy-19-fluoro-8,10,12-trimethyl-2,8,10,11,12,13-hexahydro-14H-3,5-ethenotripyrazolo[3,4-f:3′,4′-j:4″,3″- n][1,4]oxazacyclopentadecin-14-yl]propan-1-ol]: the IC50 is 2.47 nM against ALK; 2.37 nM on CLK1; 592 nM on CLK3; 0.17 nM in assay [1]; 0.48 nM in [2]; 2.51 nM at CLK2. The IC50 turned out to be 8.31 nM on EGFR (D770_N771insNPG); 0.22 nM against EGFR Δ746-750 mutant; 7.25 nM on CLK4; 0.35 nM against EGFR L858R mutant; 0.2 nM against EGFR L858R/T790M mutant; 0.77 nM on EGFR WT.
